Test results reported in US8486683B2, “Beta-glucosidase enzymes” (Iogen Energy Corporation, priority 2009, dated 2013).
Where “and” joins values, the source holds several entries; their conditions need not be identical. Equal entries are not always repeated.

Key:
[1] = tested on: Trichoderma reesei beta-glucosidase TrCel3A variant TrCel3A-I543N, SEQ ID NO: 10 (full: SEQ ID NO: 125); assay: Initial rate assay of cellobiose hydrolysis, TrCel3A-I543N (Example 9); format: biochemical; conditions: relative to parental TrCel3A
Description: (§1) KG is defined as the concentration of glucose which reduces the enzymatic activity of the beta-glucosidase by 50%. […] The kcat is the catalytic rate constant for the hydrolysis of cellobiose. Example 8 details an assay for measuring the KG and KG2 of parental and modified TrCel3A beta-glucosidases. Example 9 details an assay for measuring the kcat of parental and modified TrCel3A beta-glucosidases.
(§2) KG of the parental and modified TrCel3A beta-glucosidases can be determined by measuring the rate of hydrolysis of a chromogenic substrate, such as p-nitrophenyl-beta-D-glucopyranoside (pNPG), in the presence of various concentrations of glucose as described in Example 8. […] The KG2 constants for parental and modified TrCel3A beta-glucosidases can be determined by measuring the rate of hydrolysis of cellobiose in reactions containing increasing concentrations of cellobiose or, alternatively, by measuring the rate of hydrolysis of a chromogenic substrate, such as pNPG, in the presence of various concentrations of a cellobiose as described in Example 8. […] The kcat values for parental and modified TrCel3A beta-glucosidases can be determined by measuring the rate of cellobiose hydrolysis at varying concentrations of a cellobiose substrate, for example, as described in Example 9. […]

[2] = biological target: T1, Trichoderma reesei beta-glucosidase TrCel3A (Cel3A, BGL1), wild type (parental), SEQ ID NO: 116 / SEQ ID NO: 1 (Trichoderma reesei, UniProt Q12715); assay: pNPG competitive substrate/inhibitor real-time kinetic assay, parental TrCel3A (Example 8)
T1 sequence (Q12715 32-744): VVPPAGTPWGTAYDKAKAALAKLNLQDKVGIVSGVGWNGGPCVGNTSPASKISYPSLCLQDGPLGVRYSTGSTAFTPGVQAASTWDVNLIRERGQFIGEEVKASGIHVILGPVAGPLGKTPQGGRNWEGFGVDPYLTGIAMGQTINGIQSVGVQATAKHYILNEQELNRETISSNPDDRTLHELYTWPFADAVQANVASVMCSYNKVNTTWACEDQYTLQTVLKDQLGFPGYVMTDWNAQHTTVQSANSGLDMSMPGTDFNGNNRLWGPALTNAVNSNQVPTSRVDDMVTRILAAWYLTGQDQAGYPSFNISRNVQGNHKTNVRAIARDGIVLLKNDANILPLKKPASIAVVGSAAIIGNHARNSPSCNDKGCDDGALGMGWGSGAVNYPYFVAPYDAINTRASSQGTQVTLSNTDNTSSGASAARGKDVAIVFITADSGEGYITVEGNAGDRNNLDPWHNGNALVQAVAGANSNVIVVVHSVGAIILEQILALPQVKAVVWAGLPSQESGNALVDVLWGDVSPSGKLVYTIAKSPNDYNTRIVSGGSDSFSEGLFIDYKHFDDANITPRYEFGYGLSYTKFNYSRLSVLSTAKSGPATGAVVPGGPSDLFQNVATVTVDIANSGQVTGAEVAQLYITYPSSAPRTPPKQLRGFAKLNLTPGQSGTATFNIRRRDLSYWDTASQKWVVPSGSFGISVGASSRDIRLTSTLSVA

[3] = biological target: T1, Trichoderma reesei beta-glucosidase TrCel3A (Cel3A, BGL1), wild type (parental), SEQ ID NO: 116 / SEQ ID NO: 1; assay: Initial rate assay of cellobiose hydrolysis, parental TrCel3A (Example 9); format: biochemical
Description: as §1, §2

[4] = biological target: Several microbial beta-glucosidases with higher tolerance to glucose inhibition; conditions: literature, read-out: KG (tolerance to glucose inhibition); cited from earlier work
[5] = biological target: Beta-glucosidases from most fungi; conditions: literature, read-out: KG values for glucose (glucose inhibition); cited from earlier work
[6] = substrate: OC[C@H]1O[C@@H](O[C@H]2[C@H](O)[C@@H](O)C(O)O[C@@H]2CO)[C@H](O)[C@@H](O)[C@@H]1O; assay: purified protein, by the assay type; conditions: other: 0.4 mM pNPG, 3 mM cellobiose, 50 mM citrate pH 5.0, 50° C.

## OC[C@H]1O[C@@H](O[C@H]2[C@H](O)[C@@H](O)C(O)O[C@@H]2CO)[C@H](O)[C@@H](O)[C@@H]1O (stereo partly drawn) [cellobiose, gluco-beta-(1,4)-glucoside]
[1]
  Relative kcat: 0.73
[2]; relative to parental TrCel3A
  Relative KG2: 1.00
[3]; 0.3 to 40 mM cellobiose, 50° C., 15 min
  kcat (catalytic rate constant for cellobiose): 8.92 µmol/min/mg and 8.92 ± 0.29 µmol/min/mg
[3]; cellobiose, relative to parental TrCel3A
  Relative kcat: 1

## OC[C@H]1OC(O)[C@H](O)[C@@H](O)[C@@H]1O (some centres unmarked) [glucose]
[2]
  Ki: 580 µM
[4]
  Ki: > 8000 µM
[5]
  Ki: 600 to 8000 µM

B1: Trichoderma reesei beta-glucosidase TrCel3A (Cel3A, BGL1), wild type (parental), SEQ ID NO: 116 / SEQ ID NO: 1 (Trichoderma reesei) (protein)
chain: T1 sequence (Q12715 32-744)
[6]
  Km: 1180 ± 120 µM
